Drawing on patent publication US11192852B2, “Pyrazolyl and pyrimidinyl tricyclic enones as antioxidant inflammation modulators” (REATA PHARMACEUTICALS, INC., priority 2010, dated 2021), this text covers IC50 for 51 molecules.

Bounds are passed on as bounds.

The subject of one experiment is IFNγ-induced NO production in RAW264.7 mouse macrophages. In words: Suppression of IFNγ-induced nitric oxide production (Griess reagent). To be noted: Mus musculus, RAW264.7, RAW264.7 cells, 2 h pre-treatment (0-200 nM), then IFNγ 24 h; normalized to cell viability. Type of experiment: cell-based. The text has this:
Nitric Oxide Production and Cell Viability.
For the molecule `Cn1nc2c(c1-c1ccccc1)CC[C@H]1C(C)(C)C(=O)[C@]3(C#N)O[C@@H]3[C@]21C` [TX63834], the IC50 is 105 nM.

Take `Cn1cc2c(n1)[C@@]1(C)C=C(C#N)C(=O)C(C)(C)[C@@H]1C2` [TX63559]: the IC50 is more than 200 nM. As to `Cc1noc(C)c1-c1c2c(nn1C)[C@@]1(C)C=C(C#N)C(=O)C(C)(C)[C@@H]1CC2` [TX63625], the IC50 turned out to be 77 nM. In the case of `Cc1nc(N(C)C)c2c(n1)[C@@]1(C)C=C(C#N)C(=O)[C@@H](C)[C@@H]1CC2` [TX63774], the IC50 came to 26.7 nM. As for `C[C@@H]1C(=O)C(C#N)=C[C@]2(C)c3nn(C)c(-c4ccccc4F)c3CC[C@@H]12` [TX63721], the IC50 stood at 7.8 nM. The same measure, in the same setting: under `Cc1nc(-c2ccccc2)c2c(n1)[C@@]1(C)C=C(C#N)C(=O)C(C)(C)[C@@H]1CC2` [TX63529] stands 46 nM; under `COc1nc(-c2cncnc2)nc2c1CC[C@H]1[C@H](C)C(=O)C(C#N)=C[C@]21C` [TX63757], 4.3 nM.

In the case of `CCOc1nc(C(C)(C)C)nc2c1CC[C@H]1[C@H](C)C(=O)C(C#N)=C[C@]21C` [TX63900], the IC50 turned out to be 40 nM. Same read-out and setting: then `Cn1nc2c(c1-c1ccc(F)cc1)CC[C@H]1C(C)(C)C(=O)C(C#N)=C[C@]21C` [TX63507], with 39 nM. The same measure, in the same setting: under `C[C@@H]1C(=O)C(C#N)=C[C@]2(C)c3nc(-c4ccccc4)n(C)c(=O)c3CC[C@@H]12` [TX63666] stands 25 nM; under `C[C@@H]1C(=O)C(C#N)=C[C@]2(C)c3nn(C)c(-c4cncnc4)c3CC[C@@H]12` [TX63748], 23 nM; under `CC1(C)C(=O)C(C#N)=C[C@]2(C)c3nn(CC(F)(F)F)cc3CC[C@@H]12` [TX63454], 134 nM. As to `CN1N=C2C(C)(CC[C@H]3C(C)(C)C(=O)C(C#N)=C[C@]23C)C1=O` (stereo partly drawn) [TX63692], the IC50 is more than 200 nM.

In the case of `CC1(C)C(=O)C(C#N)=C[C@]2(C)c3nc(-c4ccncc4)ncc3CC[C@@H]12` [TX63636], the IC50 worked out at 27 nM. Consider `CC(=O)n1nc2c(c1-c1ccccc1)CC[C@H]1C(C)(C)C(=O)C(C#N)=C[C@]21C` [TX63611], for which the IC50 amounted to 22 nM.

In the case of `Cn1cc2c(n1)[C@@]1(C)C=C(C#N)C(=O)C3(CCCC3)[C@@H]1CC2` [TX63487], the IC50 was found to be 85 nM. As for `CC(C)n1cnc(-c2c3c(nn2C)[C@@]2(C)C=C(C#N)C(=O)C(C)(C)[C@@H]2CC3)n1` [TX63905], the half-inhibitory concentration (IC50) was 129 nM. Still for that read-out and setting: under `CCOc1nc(OCC)c2c(n1)[C@@]1(C)C=C(C#N)C(=O)[C@@H](C)[C@@H]1CC2` [TX63736] stands 9.8 nM; under `C[C@@H]1C(=O)C(C#N)=C[C@]2(C)c3nn(C)c(-c4ccccn4)c3CC[C@@H]12` [TX63851], 5.1 nM; under `CC1(C)C(=O)C(C#N)=C[C@]2(C)c3c(cnn3-c3ccccc3)CC[C@@H]12` [TX63524], 68 nM.

Regarding `C[C@@H]1C(=O)C(C#N)=C[C@]2(C)c3nn(C)c(-c4cccnc4)c3CC[C@@H]12` [TX63722], the IC50 was 8.3 nM. As to `CC1(C)C(=O)C(C#N)=C[C@]2(C)c3[nH]nc(-c4ccccc4)c3CC[C@@H]12` [TX63579], the IC50 is 22 nM. On to `Cn1[nH]c2c(c1=O)CC[C@H]1C(C)(C)C(=O)C(C#N)=C[C@]21C` [TX63676], for which the IC50 is more than 200 nM.

As to `Cn1nc2c(c1-c1ccccc1)CCC1=CC(=O)C=C[C@@]12C` [TX63578], the IC50 was more than 200 nM. Still for that read-out and setting: under `Cn1nc2c(c1-c1ccccc1Cl)CC[C@H]1C(C)(C)C(=O)C(C#N)=C[C@]21C` [TX63491] stands 35 nM.

As for `Cc1noc(-c2c3c(nn2C)[C@@]2(C)C=C(C#N)C(=O)C(C)(C)[C@@H]2CC3)n1` [TX63760], the IC50 was found to be 6.2 nM. Same read-out and setting: under `Cn1nnc(-c2c3c(nn2C)[C@@]2(C)C=C(C#N)C(=O)C(C)(C)[C@@H]2CC3)n1` [TX63665] stands 14 nM. In the case of `Cn1nc2c(c1-c1cccc3ccccc13)CC[C@H]1C(C)(C)C(=O)C(C#N)=C[C@]21C` [TX63603], the IC50 is 61 nM. In the case of `Cn1nc2c(c1-c1ccccc1)C(=O)C[C@H]1C(C)(C)C(=O)C=C[C@]21C` [TX63804], the IC50 is more than 200 nM. `COc1nc(OC)c2c(n1)[C@]1(C)C=C(C#N)C(=O)[C@H](C)[C@H]1CC2` [TX63794]: the IC50 was determined as 88.5 nM.

As for `COc1ccccc1-c1nc(OC)c2c(n1)[C@@]1(C)C=C(C#N)C(=O)[C@@H](C)[C@@H]1CC2` [TX63727], the IC50 is 11.5 nM. The same measure, in the same setting: under `C[C@@H]1C(=O)C(C#N)=C[C@]2(C)c3nn(C)c(N4C(=O)NC(C)(C)C4=O)c3CC[C@@H]12` [TX63776] stands more than 200 nM; under `Cc1noc(-c2c3c(nn2C)[C@@]2(C)C=C(C#N)C(=O)[C@@H](C)[C@@H]2CC3)n1` [TX63872], 4.6 nM; under `CC1(C)C(=O)C(C#N)=C[C@]2(C)c3nc(-c4ccccc4Cl)ncc3CC[C@@H]12` [TX63612], 43 nM. As to `COc1c2c(nn1C)[C@@]1(C)C=C(C#N)C(=O)C(C)(C)[C@@H]1CC2` [TX63691], the IC50 came to 62 nM.

For `C[C@@H]1C(=O)C(C#N)=C[C@]2(C)c3nn(C)c(Br)c3CC[C@@H]12` [TX63606], the IC50 was 11 nM. Still for that read-out and setting: then `Cc1ccccc1-c1c2c(nn1C)[C@@]1(C)C=C(C#N)C(=O)C(C)(C)[C@@H]1CC2` [TX63508], with 33 nM; and `Cn1nc2c(c1-c1ccccc1)CC[C@H]1C(C)(C)C(=O)C(C(F)(F)F)=C[C@]21C` [TX63803], with 50 nM; and `COC(=O)n1cc2c(n1)[C@@]1(C)C=C(C#N)C(=O)C(C)(C)[C@@H]1CC2` [TX63462], with 147 nM.

For `CCOc1nc(-c2ccccc2)nc2c1CC[C@H]1[C@H](C)C(=O)C(C#N)=C[C@]21C` [TX63731], the IC50 worked out at 32 nM. The same measure, in the same setting: then `Cn1nc2c(c1-c1ccc(Cl)cc1)CC[C@H]1C(C)(C)C(=O)C(C#N)=C[C@]21C` [TX63486], with 48 nM; and `Cc1cccc(-c2c3c(nn2C)[C@@]2(C)C=C(C#N)C(=O)[C@@H](C)[C@@H]2CC3)c1` [TX63650], with 6.1 nM. Regarding `Cn1nc2c(c1C#N)CC[C@H]1C(C)(C)C(=O)C(C#N)=C[C@]21C` [TX63613], the IC50 came out at 101 nM.

In the case of `CC(=O)n1nc2c(c1-c1ccccc1)CC[C@H]1[C@H](C)C(=O)C(C#N)=C[C@]21C` [TX63850], the IC50 was 8.9 nM. The same measure, in the same setting: then `Cc1c2c(nn1C)[C@@]1(C)C=C(C#N)C(=O)C(C)(C)[C@@H]1CC2` [TX63637], with 45 nM. Still for that read-out and setting: under `Cn1nc2c(c1-c1ccccc1)CC[C@H]1[C@H](c3ccccc3)C(=O)C(C#N)=C[C@]21C` [TX63629] stands 137 nM; under `Cc1nnc(-c2c3c(nn2C)[C@@]2(C)C=C(C#N)C(=O)C(C)(C)[C@@H]2CC3)o1` [TX63735], 15.6 nM. Same read-out and setting: then `C[C@@H]1C(=O)C(C#N)=C[C@]2(C)c3nn(C)cc3C[C@@H]12` [TX63533], with more than 200 nM; and `C[C@@H]1C(=O)C(C#N)=C[C@]2(C)c3nn(C)c(-c4ccncc4)c3CC[C@@H]12` [TX63720], with 4.9 nM.

The same experiment, now with this note: RAW264.7 cells, 2 h pre-treatment (0-200 nM), then IFNγ 24 h; normalized to cell viability.
Turning to `COc1nc(OC)c2c(n1)[C@@]1(C)C=C(C#N)C(=O)[C@@H](C)[C@@H]1CC2` [TX63718], the IC50 is 6 nM. On the same count and under the same terms, then `COc1nc(OC)c2c(n1)[C@@]1(C)C=C(C#N)C(=O)[C@@H](C)[C@@H]1CC2` [TX63793], with 2.5 nM.
